# From patent US20120010179A1, “Methods of using a thiazole derivative” (priority 2006, published 2012)
# Tested on: patients with COPD
# Assay: Pulmonary function tests (spirometry FEV1, FVC), tetomilast with inhaled albuterol, crossover study (Example 1)
# Format: in vivo, human
# Conditions: for Estimated Treatment Effect, change from baseline in FEV1 (tetomilast versus placebo) / Estimated Treatment Effect, change from baseline in FVC (tetomilast versus placebo) / LS Mean change from baseline in FEV1 (repeated measures ANOVA) / LS Mean change from baseline in FVC (repeated measures ANOVA) / Mean (SD) change from baseline in FEV1 / Mean (SD) change from baseline in FVC: Baseline (Day 0); for Estimated Treatment Effect, change from baseline in FEV1 (tetomilast versus placebo) / Estimated Treatment Effect, change from baseline in FVC (tetomilast versus placebo): both with inhaled albuterol; for LS Mean change from baseline in FEV1 (repeated measures ANOVA) / LS Mean change from baseline in FVC (repeated measures ANOVA) / Mean (SD) change from baseline in FEV1 / Mean (SD) change from baseline in FVC: tetomilast 50 mg QD + inhaled albuterol
# Procedure: Pulmonary function tests were conducted throughout the study to monitor the subjects' respiratory status. Flow volume curves were collected via spirometry. Combivent® (Boehringer Ingleheim Pharmaceuticals, Inc., Ridgefield Conn.), which was used for short-acting rescues as needed throughout the studies described below, was withheld for 6 hours prior to any spirometric testing. Spirometry testing was performed at screening, baseline (Day 0), and at specific times during the treatment period. Each subject could have up to 5 spirometric readings at any study time point. Spirometric readings were performed using equipment from the central provider, Quantum Research, Inc. (Louisville, Colo.). All spirometry readings were recorded and sent to Quantum Research, Inc. for analysis
# For the spirometric readings, the best effort was reported as follows. The highest acceptable forced expiratory volume in one second (FEV1) value was selected as the “best” of the given test session. If two or more FEV1 values were tied as highest, the sum of FEV1 and forced vital capacity (FVC) for those efforts was used. If both conditions were equal between the two efforts, the values reported were taken from the effort that occurred first, chronologically, based on date and time of the effort.
# This study was a multicenter, randomized, double-blind, placebo-controlled, crossover, multiple dose, outpatient study in 27 patients with COPD. All subjects underwent a 28-day washout from inhaled corticosteroids and/or long-acting bronchodilators and/or continuous oxygen therapy (≧16 hours per day) and a 7-day washout from oral beta2-agonists and/or oral theophylline salts prior to baseline. Randomized subjects received an 8-day administration of oral placebo or tetomilast 50 mg oral dose (2×25 mg tablets) once daily (QD). On study Day 8, four consecutive doses of inhaled albuterol (90 μg albuterol base per puff) were given via a metered dose inhaler (MDI) and holding chamber (Ventolin®, GlaxoSmithKline, Research Triangle Park, N.C.), one dose every 30 minutes over the course of 90 minutes at doses of 90 μg+90 μg+180 μg+360 μg for a total dose of 720 μg (albuterol base) or 8 puffs.
# Subjects entered a 7-day washout period (study days 9 through 15) and were then crossed over to the alternate treatment arm (placebo or tetomilast 50 mg oral dose). On study [0105] Day 23, the inhaled albuterol multiple dosing was repeated.
# On Days 1-6 and 17-21, subjects were instructed to take their oral study medication (placebo or tetomilast 50 mg) QD with 8 ounces of water immediately before breakfast. Subjects assigned to the placebo arm received two placebo tablets QD. On Days 7, 8, 16, 22, and 23, subjects took their oral medication (placebo or tetomilast 50 mg) at the clinic in the presence of the study staff.
# Combivent® inhalation aerosol use was allowed for short-acting rescue as needed throughout the study except on study days where PK samples were collected, on days when the multiple doses of inhaled albuterol were administered in the clinic, and/or on days when spirometry testing was performed. On all study days where PK samples were collected, Combivent® was withheld 6 hours prior to the PK draw. Additionally, on study Days 8 and 23 (when the multiple doses of inhaled albuterol were administered in the clinic), Combivent® was withheld 6 hours prior to PK assessment and throughout the duration of the clinic visit. Combivent® was withheld for six hours prior to spirometry testing. The recommended dose of Combivent® Inhalation Aerosol is two inhalations four times a day. In this study, subjects were permitted to take additional inhalations as required; however, the total number of inhalations was not to exceed 12 in 24 hours. Subjects were to “test-spray” three times before using for the first time and in cases where the aerosol had not been used for more than 24 hours. […]
compound,measurement,setting,value
"CCOc1ccc(-c2nc(-c3cccc(C(=O)O)n3)cs2)cc1OCC [Tetomilast, 2-(3,4-diethoxyphenyl)-4-(2-carboxy-6-pyridyl)thiazole]","Estimated Treatment Effect, change from baseline in FEV1 (tetomilast versus placebo)","Day 8/23, 5 min postdose",0.02 L
same,"Estimated Treatment Effect, change from baseline in FVC (tetomilast versus placebo)","Day 8/23, 5 min postdose",0.06 L
same,LS Mean change from baseline in FEV1 (repeated measures ANOVA),"Day 8/23, 5 min postdose",0.19 L
same,LS Mean change from baseline in FVC (repeated measures ANOVA),"Day 8/23, 5 min postdose",0.31 L
same,Mean (SD) change from baseline in FEV1,"Day 8/23, 5 min postdose",0.19 (0.19) L
same,Mean (SD) change from baseline in FVC,"Day 8/23, 5 min postdose",0.30 (0.28) L
same,"Estimated Treatment Effect, change from baseline in FEV1 (tetomilast versus placebo)","Day 8/23, 25 min postdose",0.06 L
same,"Estimated Treatment Effect, change from baseline in FVC (tetomilast versus placebo)","Day 8/23, 25 min postdose",0.11 L
same,LS Mean change from baseline in FEV1 (repeated measures ANOVA),"Day 8/23, 25 min postdose",0.21 L
same,LS Mean change from baseline in FVC (repeated measures ANOVA),"Day 8/23, 25 min postdose",0.31 L
same,Mean (SD) change from baseline in FEV1,"Day 8/23, 25 min postdose",0.21 (0.20) L
same,Mean (SD) change from baseline in FVC,"Day 8/23, 25 min postdose",0.31 (0.38) L
same,"Estimated Treatment Effect, change from baseline in FEV1 (tetomilast versus placebo)","Day 8/23, 35 min postdose",0.05 L
same,"Estimated Treatment Effect, change from baseline in FVC (tetomilast versus placebo)","Day 8/23, 35 min postdose",0.09 L
same,LS Mean change from baseline in FEV1 (repeated measures ANOVA),"Day 8/23, 35 min postdose",0.26 L
same,LS Mean change from baseline in FVC (repeated measures ANOVA),"Day 8/23, 35 min postdose",0.41 L
same,Mean (SD) change from baseline in FEV1,"Day 8/23, 35 min postdose",0.26 (0.18) L
same,Mean (SD) change from baseline in FVC,"Day 8/23, 35 min postdose",0.41 (0.34) L
same,"Estimated Treatment Effect, change from baseline in FEV1 (tetomilast versus placebo)","Day 8/23, 55 min postdose",0.08 L
same,"Estimated Treatment Effect, change from baseline in FVC (tetomilast versus placebo)","Day 8/23, 55 min postdose",0.15 L
same,LS Mean change from baseline in FEV1 (repeated measures ANOVA),"Day 8/23, 55 min postdose",0.28 L
same,LS Mean change from baseline in FVC (repeated measures ANOVA),"Day 8/23, 55 min postdose",0.39 L
same,Mean (SD) change from baseline in FEV1,"Day 8/23, 55 min postdose",0.28 (0.19) L
same,Mean (SD) change from baseline in FVC,"Day 8/23, 55 min postdose",0.38 (0.31) L
same,"Estimated Treatment Effect, change from baseline in FEV1 (tetomilast versus placebo)","Day 8/23, 65 min postdose",0.08 L
same,"Estimated Treatment Effect, change from baseline in FVC (tetomilast versus placebo)","Day 8/23, 65 min postdose",0.18 L
same,LS Mean change from baseline in FEV1 (repeated measures ANOVA),"Day 8/23, 65 min postdose",0.32 L
same,LS Mean change from baseline in FVC (repeated measures ANOVA),"Day 8/23, 65 min postdose",0.51 L
same,Mean (SD) change from baseline in FEV1,"Day 8/23, 65 min postdose",0.32 (0.19) L
same,Mean (SD) change from baseline in FVC,"Day 8/23, 65 min postdose",0.52 (0.37) L
same,"Estimated Treatment Effect, change from baseline in FEV1 (tetomilast versus placebo)","Day 8/23, 85 min postdose",0.07 L
same,"Estimated Treatment Effect, change from baseline in FVC (tetomilast versus placebo)","Day 8/23, 85 min postdose",0.13 L
same,LS Mean change from baseline in FEV1 (repeated measures ANOVA),"Day 8/23, 85 min postdose",0.33 L
same,LS Mean change from baseline in FVC (repeated measures ANOVA),"Day 8/23, 85 min postdose",0.48 L
same,Mean (SD) change from baseline in FEV1,"Day 8/23, 85 min postdose",0.33 (0.19) L
same,Mean (SD) change from baseline in FVC,"Day 8/23, 85 min postdose",0.47 (0.37) L
same,"Estimated Treatment Effect, change from baseline in FEV1 (tetomilast versus placebo)","Day 8/23, 95 min postdose",0.07 L
same,"Estimated Treatment Effect, change from baseline in FVC (tetomilast versus placebo)","Day 8/23, 95 min postdose",0.19 L
same,LS Mean change from baseline in FEV1 (repeated measures ANOVA),"Day 8/23, 95 min postdose",0.36 L
same,LS Mean change from baseline in FVC (repeated measures ANOVA),"Day 8/23, 95 min postdose",0.55 L
same,Mean (SD) change from baseline in FEV1,"Day 8/23, 95 min postdose",0.36 (0.19) L
same,Mean (SD) change from baseline in FVC,"Day 8/23, 95 min postdose",0.55 (0.40) L
same,"Estimated Treatment Effect, change from baseline in FEV1 (tetomilast versus placebo)","Day 8/23, 115 min postdose",0.07 L
same,"Estimated Treatment Effect, change from baseline in FVC (tetomilast versus placebo)","Day 8/23, 115 min postdose",0.18 L
same,LS Mean change from baseline in FEV1 (repeated measures ANOVA),"Day 8/23, 115 min postdose",0.35 L
same,LS Mean change from baseline in FVC (repeated measures ANOVA),"Day 8/23, 115 min postdose",0.54 L
same,Mean (SD) change from baseline in FEV1,"Day 8/23, 115 min postdose",0.35 (0.18) L
same,Mean (SD) change from baseline in FVC,"Day 8/23, 115 min postdose",0.53 (0.44) L
same,"Estimated Treatment Effect, change from baseline in FEV1 (tetomilast versus placebo)","Day 8/23, 175 min postdose",0.09 L
same,"Estimated Treatment Effect, change from baseline in FVC (tetomilast versus placebo)","Day 8/23, 175 min postdose",0.15 L
same,LS Mean change from baseline in FEV1 (repeated measures ANOVA),"Day 8/23, 175 min postdose",0.36 L
same,LS Mean change from baseline in FVC (repeated measures ANOVA),"Day 8/23, 175 min postdose",0.53 L
same,Mean (SD) change from baseline in FEV1,"Day 8/23, 175 min postdose",0.36 (0.21) L
same,Mean (SD) change from baseline in FVC,"Day 8/23, 175 min postdose",0.52 (0.36) L
same,"Estimated Treatment Effect, change from baseline in FEV1 (tetomilast versus placebo)","Day 8/23, 235 min postdose",0.07 L
same,"Estimated Treatment Effect, change from baseline in FVC (tetomilast versus placebo)","Day 8/23, 235 min postdose",0.09 L
same,LS Mean change from baseline in FEV1 (repeated measures ANOVA),"Day 8/23, 235 min postdose",0.34 L
same,LS Mean change from baseline in FVC (repeated measures ANOVA),"Day 8/23, 235 min postdose",0.42 L
same,Mean (SD) change from baseline in FEV1,"Day 8/23, 235 min postdose",0.34 (0.25) L
same,Mean (SD) change from baseline in FVC,"Day 8/23, 235 min postdose",0.42 (0.48) L
same,"Estimated Treatment Effect, change from baseline in FEV1 (tetomilast versus placebo)","Day 8/23, 295 min postdose",0.05 L
same,"Estimated Treatment Effect, change from baseline in FVC (tetomilast versus placebo)","Day 8/23, 295 min postdose",0.19 L
same,LS Mean change from baseline in FEV1 (repeated measures ANOVA),"Day 8/23, 295 min postdose",0.25 L
same,LS Mean change from baseline in FVC (repeated measures ANOVA),"Day 8/23, 295 min postdose",0.38 L
same,Mean (SD) change from baseline in FEV1,"Day 8/23, 295 min postdose",0.25 (0.29) L
same,Mean (SD) change from baseline in FVC,"Day 8/23, 295 min postdose",0.37 (0.49) L
same,"Estimated Treatment Effect, change from baseline in FEV1 (tetomilast versus placebo)","Day 8/23, 355 min postdose",0.13 L
same,"Estimated Treatment Effect, change from baseline in FVC (tetomilast versus placebo)","Day 8/23, 355 min postdose",0.24 L
same,LS Mean change from baseline in FEV1 (repeated measures ANOVA),"Day 8/23, 355 min postdose",0.25 L
same,LS Mean change from baseline in FVC (repeated measures ANOVA),"Day 8/23, 355 min postdose",0.34 L
same,Mean (SD) change from baseline in FEV1,"Day 8/23, 355 min postdose",0.25 (0.24) L
same,Mean (SD) change from baseline in FVC,"Day 8/23, 355 min postdose",0.34 (0.39) L
same,"effect on inhaled albuterol response (FEV1, FVC), exploratory repeated measures analysis","inhaled albuterol combined with tetomilast versus inhaled albuterol alone, Day 8/23",possible potentiation of the effect of inhaled albuterol
same,"FEV1 steady-state (predose) baseline value, Mean (SD)","predose Day 8/23, on tetomilast 50 mg QD, prior to inhaled albuterol",1.40 (0.61) L
